Literature values in patent US20120027718A1, “COMBINATION THERAPY WITH GLATIRAMER ACETATE AND RASAGILINE FOR THE TREATMENT OF MULTIPLE SCLEROSIS” (Teva Pharmaceutical Industries, Ltd., priority 2005, published 2012).

Key:
[1] = tested on: models of traumatic head injury; conditions: in vivo
stroke models = conditions: in vivo

C#CCN[C@@H]1CCc2ccccc21 [Rasagiline, R(+)-N-propargyl-1-aminoindan]
efficacy in models of traumatic head injury [1]: effective
efficacy in stroke models (stroke models): effective

L-glutamic acid polymer with L-alanine, L-lysine and L-tyrosine, acetate (salt) [Glatiramer acetate]
relapse rates, progression of disability, appearance of new lesions by MRI and appearance of black holes (multiple sclerosis (MS); daily subcutaneous injections, 20 mg/injection): reduce
efficacy in treating multiple sclerosis (multiple sclerosis (MS); human, in vivo): effective
